The target of series [1] is T1, HDelta (Homo sapiens, UniProt P41143).
T1 construct: expressed in transfected cells; host or cells: human 293S cells (geneticin-selected)
As to the kind of experiment: HDelta agonist activity (EC50, % EMAX). Type of series: biochemical.

For series [2], the target named is Rat Brain (Rattus norvegicus, UniProt P33533). The series is described as follows: Rat Brain agonist activity (EC50, % EMAX). Type of series: biochemical.
Series [3] can be described thus: RLM metabolic stability (% remaining). Type of series: in vitro ADME, rat.
Series [4] has as its target T2, Mouse Brain (Mus musculus, UniProt P32300).
T2 construct: from tissue; host or cells: mouse brain
The series is described as follows: Mouse Brain agonist activity (EC50, % EMAX). Type of series: biochemical.

Series [5] can be described thus: MLM metabolic stability (% remaining). It is filed as in vitro ADME, mouse.
The target in series [6] is T3, cloned human δ receptors (HDelta) (Homo sapiens, UniProt P41143).
T3 construct: expressed in transfected cells; host or cells: human 293S cells (geneticin-selected)
As to the kind of experiment: Binding assay on membranes of 293S cells expressing cloned human δ receptor (HDelta).

The mark [7] stands for this setting: 10000 (concentration, unit not given).
The mark [8] stands for this setting: 100000 (concentration, unit not given).

The source of these data is US6680318B2, “Piperazinomethylbenzamides as delta-opioid receptor agonists” (AstraZeneca AB, priority 1999, dated 2004).

Counter-ions that a name gives are not always drawn. Like-named read-outs stand apart in the source and are kept apart here.

T1 sequence (P41143 whole entry): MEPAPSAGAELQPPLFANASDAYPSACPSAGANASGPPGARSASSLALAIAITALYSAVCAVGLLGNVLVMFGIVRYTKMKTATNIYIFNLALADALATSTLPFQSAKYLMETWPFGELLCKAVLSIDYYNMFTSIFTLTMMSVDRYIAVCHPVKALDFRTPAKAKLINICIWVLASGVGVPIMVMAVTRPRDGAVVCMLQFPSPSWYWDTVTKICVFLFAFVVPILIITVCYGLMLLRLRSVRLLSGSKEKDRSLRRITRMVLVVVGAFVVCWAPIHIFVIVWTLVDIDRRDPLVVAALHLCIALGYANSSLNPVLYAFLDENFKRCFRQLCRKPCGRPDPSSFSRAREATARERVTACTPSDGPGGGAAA
T2 sequence (P32300 whole entry): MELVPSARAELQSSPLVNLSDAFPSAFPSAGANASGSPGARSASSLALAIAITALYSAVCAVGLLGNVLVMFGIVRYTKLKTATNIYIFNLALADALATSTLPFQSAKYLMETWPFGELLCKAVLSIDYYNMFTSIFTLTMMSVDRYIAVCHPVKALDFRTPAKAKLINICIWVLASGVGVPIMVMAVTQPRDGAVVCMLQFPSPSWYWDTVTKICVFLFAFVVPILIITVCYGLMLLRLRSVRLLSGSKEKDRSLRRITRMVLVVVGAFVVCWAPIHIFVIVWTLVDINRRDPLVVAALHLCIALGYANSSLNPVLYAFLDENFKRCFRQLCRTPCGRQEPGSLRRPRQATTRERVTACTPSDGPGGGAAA
Rat Brain, sequence (P33533 whole entry): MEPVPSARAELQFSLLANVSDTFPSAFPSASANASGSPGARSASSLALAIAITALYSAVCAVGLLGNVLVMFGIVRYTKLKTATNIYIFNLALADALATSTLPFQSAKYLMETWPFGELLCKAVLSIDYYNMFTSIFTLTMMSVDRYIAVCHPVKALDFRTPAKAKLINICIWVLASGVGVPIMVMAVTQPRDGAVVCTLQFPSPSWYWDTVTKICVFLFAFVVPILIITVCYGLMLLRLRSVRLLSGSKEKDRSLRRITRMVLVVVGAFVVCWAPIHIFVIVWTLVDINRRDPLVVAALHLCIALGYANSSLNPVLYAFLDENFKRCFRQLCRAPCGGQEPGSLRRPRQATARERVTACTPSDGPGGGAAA
T3 sequence (P41143 whole entry): as the sequence (P41143 whole entry) above

In the case of `CCN(CC)C(=O)c1ccc(C(c2cccc3c2OC(C)(C)C3)N2CCN(Cc3cccnc3)CC2)cc1` (stereo not shown) [Example 3, 4-{(2,2-dimethyl-2,3-dihydro-1-benzofuran-7-yl)[4-(3-pyridinylmethyl)-1-piperazinyl]methyl}-N,N-diethylbenzamide Dihydrochloride], the Emax in series [1] amounted to 103%; in series [2], 93%. Besides, the EC50 in series [1] (read-out: HDelta EC50) stood at 19.5 nM.

Regarding `CCN(CC)C(=O)c1ccc(C(c2cccc3c2OC(C)(C)C3)N2CCN(Cc3ccccn3)CC2)cc1` (stereo not shown) [Example 4, 4-{(2,2-dimethyl-2,3-dihydro-1-benzofuran-7-yl)[4-(2-pyridinylmethyl)-1-piperazinyl]methyl}-N,N-diethylbenzamide Ditrifuroacetae], the “RLM 10000 % rem.” value in series [3] (setting [7]) came to 42.5%. The “RLM 100000 % rem.” value in series [3] (setting [8]) came out at 90.5%. Also, the EC50 was 144 nM in series [4] and 7.38 nM in series [1]. Also, the values for the Emax in series [4], in series [1] and in series [2] were 118%, 104% and 118%, respectively. The “MLM 10000 % rem.” value in series [5] (setting [7]) is given as 44.5%. The “MLM 100000 % rem.” value in series [5] (setting [8]) amounted to 93%. Besides, the IC50 in series [6] was determined as 3.26 nM.
